From US6716582B2 (priority 2000, dated 2004) come the findings set out here.

What all share (type): cell-based, E. coli
Experiment [1] has as its system SOS regulon luxCDABE gene fusions. Kind of experiment: SOS regulon lux fusions: stress response in liquid LB. As to conditions: each of the eight SOS fusion strains; at least three concentrations. The method, then: To test the stress responses, one or two single colonies of each selected strain were used to inoculate 5.0 ml of LB medium containing 150 μg/ml of ampicillin. These cultures were grown overnight at 37° C. then diluted by adding 50 μl or 100 μl of the overnight culture into 10.0 ml of fresh LB medium (without ampicillin) and grown with agitation at 37° C. until the culture was in exponential phase with readings on a Klett-Summerson colorimeter containing the red filter of between 10 and 40. These actively growing cultures were immediately used to initiate a stress response experiment by adding 50 μl of cultures to 50 μl of LB medium containing various concentrations of chemical in the wells a 96 well luminometer plate. This division of the actively growing culture at the time of chemical addition ensured identical populations were present when the stress was imposed. Light production was measured in a Dynex ML3000 luminometer at 37° C. The dimensionless units of light production, relative light units (RLU), are obtained by comparison with the light reading from an internal light-emitting diode.
The ability of these promoter-luxCDABE fusions to report activation of the SOS stress response was tested using nalidixic acid, a known, potent chemical inducer. The final concentrations of nalidixic acid were 1, 5, 25, and 125 μg/ml for all but strain DPD2293, which was tested at 80, 40, 20, 10, 5, 2.5, and 1.25 μg/ml.
Specificity of responses was tested by measuring the effect of ethanol on these SOS regulon gene fusions.

Experiment [2] deals with Luxarray 0.5 luxCDABE reporter clones. As to the kind of experiment: Luxarray 0.5 solid phase perturbation with nalidixic acid. To be noted: for bioluminescence response: solid phase, 1 or 5 μg/ml, 2 hrs. The method, then:
A solid phase assay system consisting of reporter clones growing in the presence or absence of a perturbation, biological, environmental or chemical was developed. This was accomplished by growing the reporters on a porous membrane (Biodyne B, Nunc) seated on top of solid growth media in a culture dish (OmniTray, Nunc). Luminescence was measured either by a luminometer or by creating an image of the entire culture and quantitating the pixel density. Effects of perturbants can be determined by comparison of luminescence generated by treated and control cultures. Growth on the surface of the membrane allows the reporter assay to be moved between conditions as required. Experimental protocols often involve perturbations that prohibit long term exposure due to cell death or other irreversible effects. The ability to move the entire array to new growth conditions allows one a great variety of experimental schemes such as pulsed or pulse/chase exposures, reversibility, and short term kinetic studies.
Membranes were sterilized with UV illumination for 10 min then placed in contact with prewarmed media in a culture dish. The clones and controls were printed onto an approximately 8×12 cm membrane mimicking the pattern of a 96-well plate (FIG. 3A). Strains were printed to generate 8 repeating sections of the 10 strains and two controls and placed in a Dynex ML3000 luminometer prewarmed to 37° C. Luminescence data was collected for each spot for 40 cycles of 20 min duration (overnight). […] Without exception, the signal strength measured corroborated the data obtained in liquid culture. Additionally, replicates varied minimally, again similar to liquid culture measurements.
Next the system was evaluated for its ability to determine responses to perturbation, in this case, DNA damage caused by nalidixic acid. Parental clone and two nonresponding reporters, osmY, and lacZYA, and three DNA damage responsive reporters, uvrA, recA, dinG, were chosen. […] The membranes were moved to new, pre-warmed plates containing varying amounts of nalidixic acid and light readings collected with an ML3000 luminometer. […] Luminescence was measured with a Dynex ML3000 luminometer every 30 min for 2 hrs. […] The strain containing the parental plasmid, pDEW201, without a promoter driving luxCDABE expression produces very low levels of bioluminescence that are very close to the background measured on a ML3000 luminometer for strains grown in 96-well microplates. […]
The clones of Luxarray 0.5 were used to print arrays as described above at a 4×4 density. […] Spot intensity was determined using ArrayVision™ (Imaging Research, Toronto, Canada).

Another experiment relates to yebF-luxCDABE fusion. Kind of experiment: inverted yebF-luxCDABE fusion induction by DNA damaging agents. To be noted: inverted yebF-lux transformants; nalidixic acid. From the text: In this case, a divergent promoter to the purT gene was present in the chromosomal fragment and strains containing the backward yebF fusion produced light. Following isolation of plasmid DNA, XmaI digestion that releases the insert DNA from the vector, religation and transformation, 10% of the transformants produced light. […] The orientation of the inserted segment to yield a fusion of yebF to the luxCDABE operon was confirmed by DNA sequence analysis.
To test inverting of a chromosomal segment in a plasmid containing divergent promoters, the backward fusion to yebF was chosen. […] In this case, a divergent promoter to the purT gene was present in the chromosomal fragment and strains containing the backward yebF fusion produced light. Following XmaI digestion, religation and transformation, 10% of the transformants produced light. […] This was verified by DNA sequence analysis. Thus, inverting chromosomal segments containing divergent promoters is possible and is facilitated if the two promoters can be distinguished by their biological activity.

Turning to `CCn1cc(C(=O)O)c(=O)c2ccc(C)nc21` [Nalidixic acid, nalidixic acid], the “bioluminescence vs untreated control” value in experiment [1] is on record as “increased bioluminescence”. The bioluminescence response result in experiment [2] (SOS regulon reporters uvrA, recA, dinG) is “increased bioluminescence”; in experiment [2] (osmY and lacZYA fusions) it was “unaffected”. The reporter expression entry in experiment [2] (five DNA damage-responsive reporters, high density array, 5 μg/ml, 0-8 hr) is on record as “upregulation of expression”. The light production entry in experiment [2] (lac promoter fusion and several other promoter fusions, high density array, 5 μg/ml) is recorded as “decreased”. Also, in the experiment with yebF-luxCDABE fusion, the induction of bioluminescence result was “highly induced”.
